One assay has as its target T1, Estrogen receptor (Homo sapiens, UniProt P03372).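 Further: potency for inhibiting coactivator peptide recruitment to the receptor.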
T1 sequence (P03372 whole entry): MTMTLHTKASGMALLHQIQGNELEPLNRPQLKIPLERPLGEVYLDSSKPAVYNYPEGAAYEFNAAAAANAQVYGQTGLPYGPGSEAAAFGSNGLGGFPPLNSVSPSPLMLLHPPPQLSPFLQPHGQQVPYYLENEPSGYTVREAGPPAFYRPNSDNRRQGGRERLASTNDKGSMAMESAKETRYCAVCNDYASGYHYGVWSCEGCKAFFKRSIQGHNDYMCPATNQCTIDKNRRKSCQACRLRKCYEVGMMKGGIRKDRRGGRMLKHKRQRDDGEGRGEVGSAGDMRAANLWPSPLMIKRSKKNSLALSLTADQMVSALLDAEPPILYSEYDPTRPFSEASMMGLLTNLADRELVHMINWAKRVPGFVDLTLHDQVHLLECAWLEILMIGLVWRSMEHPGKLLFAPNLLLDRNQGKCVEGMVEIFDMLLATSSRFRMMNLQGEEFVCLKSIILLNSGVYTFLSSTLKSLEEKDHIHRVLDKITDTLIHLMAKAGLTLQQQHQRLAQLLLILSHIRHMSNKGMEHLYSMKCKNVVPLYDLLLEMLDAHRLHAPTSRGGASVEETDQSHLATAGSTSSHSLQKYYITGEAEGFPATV

Assay [1] has as its target Peroxisome proliferator-activated receptor gamma/Nuclear receptor corepressor 2 (Homo sapiens, UniProt P37231+Q9Y618). Description: Counterscreen for NR2E3 inverse agonists: TR-FRET-based biochemical high throughput dose response assay to identify inverse agonists of the interaction between peroxisome proliferator-activated receptor gamma (PPARg) and nuclear receptor co-repressor 2 (NCOR2). The assay is classed as functional. On the technique in general: The purpose of a counterscreen is to sort out artefacts and off-target activity.

Assay [2] addresses Photoreceptor-specific nuclear receptor (Homo sapiens, UniProt Q9Y5X4). Description: ligands suppressing NR2E3 nuclear receptor activity – biochemical, TR-FRET, dose response (AID 463256). In kind it is functional. (In TR-FRET formats the signal depends on donor and acceptor labels being close together.)
Assay [3] concerns the target Bifunctional protein GlmU (Mycobacterium tuberculosis, UniProt P9WMN3). Description: Inhibitors of Mycobacterial Glucosamine-1-phosphate acetyl transferase (GlmU). Secondary screen. Further details: species or system Mycobacterium tuberculosis H37Rv.
Assay [4] has as its target Dual specificity tyrosine-phosphorylation-regulated kinase 1A (Rattus norvegicus, UniProt Q63470). In kind it is biochemical, Homo sapiens.
The target of assay [5] is T2, NADPH oxidase 1 (Homo sapiens, UniProt Q9Y5S8). The assay is described as follows: Late stage results from the probe development effort to identify inhibitors of NOX1: HEK/293 IC50. [Related pubchem assays: 1796 (Summary AID (NOX1)), 2752 (Primary screen (NOX1 inhibitors, synthesized analogs set 2)), 2664 (Primary screen (NOX1 inhibitors, synthesized analogs)), 1792 (Primary Screen (NOX1)), 2545 (Confirmation screen (NOX1 …. The assay is classed as functional.
T2 sequence (Q9Y5S8 whole entry): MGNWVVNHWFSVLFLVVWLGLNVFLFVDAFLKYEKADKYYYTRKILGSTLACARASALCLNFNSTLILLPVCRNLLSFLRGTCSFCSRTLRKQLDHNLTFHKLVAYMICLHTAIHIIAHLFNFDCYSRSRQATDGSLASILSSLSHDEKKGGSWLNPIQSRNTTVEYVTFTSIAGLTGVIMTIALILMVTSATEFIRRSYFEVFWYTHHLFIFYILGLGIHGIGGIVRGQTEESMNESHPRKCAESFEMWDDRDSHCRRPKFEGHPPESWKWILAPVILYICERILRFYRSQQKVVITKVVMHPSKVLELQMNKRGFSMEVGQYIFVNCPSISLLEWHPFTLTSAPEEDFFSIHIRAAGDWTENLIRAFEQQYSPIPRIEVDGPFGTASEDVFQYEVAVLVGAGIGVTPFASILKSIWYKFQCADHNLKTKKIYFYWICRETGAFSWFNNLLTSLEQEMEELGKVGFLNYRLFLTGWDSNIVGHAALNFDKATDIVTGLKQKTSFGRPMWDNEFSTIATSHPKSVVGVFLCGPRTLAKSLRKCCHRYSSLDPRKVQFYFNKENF

Assay [6] deals with T2, NADPH oxidase 1. Description: potency of NOX1 inhibition in cells – cell-based, luminescence, cherry picks 2, dose response (AID 434997). The assay is classed as functional.
The target of assay [7] is T3, Heat shock factor protein 1 (Mus musculus, UniProt P38532).
T3 sequence (P38532 whole entry): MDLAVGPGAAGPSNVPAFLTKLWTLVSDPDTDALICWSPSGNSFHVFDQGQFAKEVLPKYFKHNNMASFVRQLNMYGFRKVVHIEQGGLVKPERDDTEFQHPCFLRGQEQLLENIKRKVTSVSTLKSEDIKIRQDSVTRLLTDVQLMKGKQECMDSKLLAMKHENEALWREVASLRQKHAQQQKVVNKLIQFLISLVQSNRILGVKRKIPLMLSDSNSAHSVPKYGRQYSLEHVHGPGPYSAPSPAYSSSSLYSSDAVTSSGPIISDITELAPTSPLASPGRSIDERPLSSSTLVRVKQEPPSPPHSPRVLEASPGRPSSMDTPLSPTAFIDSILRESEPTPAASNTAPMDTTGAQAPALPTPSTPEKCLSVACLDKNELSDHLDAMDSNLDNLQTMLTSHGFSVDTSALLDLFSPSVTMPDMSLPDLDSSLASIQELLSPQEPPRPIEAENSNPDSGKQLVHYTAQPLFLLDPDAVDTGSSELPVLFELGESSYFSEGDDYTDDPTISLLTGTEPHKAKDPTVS
Description: decrease of HSF1-responsive luciferase luminescence – cell-based, NIH3T3, dose retest, confirmation (AID 2382).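 Further: NIH3T3 fibroblasts with HSF1-driven luciferase reporter stressed by proteasome inhibitor MG132; luminescence from HSF1-driven luciferase expression after 8 hours of MG132 stress.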 The assay is classed as functional.

Assay [8] deals with 5-hydroxytryptamine receptor 1A (Homo sapiens, UniProt P08908). In kind it is functional.
5-hydroxytryptamine receptor 1A, sequence (P08908 whole entry): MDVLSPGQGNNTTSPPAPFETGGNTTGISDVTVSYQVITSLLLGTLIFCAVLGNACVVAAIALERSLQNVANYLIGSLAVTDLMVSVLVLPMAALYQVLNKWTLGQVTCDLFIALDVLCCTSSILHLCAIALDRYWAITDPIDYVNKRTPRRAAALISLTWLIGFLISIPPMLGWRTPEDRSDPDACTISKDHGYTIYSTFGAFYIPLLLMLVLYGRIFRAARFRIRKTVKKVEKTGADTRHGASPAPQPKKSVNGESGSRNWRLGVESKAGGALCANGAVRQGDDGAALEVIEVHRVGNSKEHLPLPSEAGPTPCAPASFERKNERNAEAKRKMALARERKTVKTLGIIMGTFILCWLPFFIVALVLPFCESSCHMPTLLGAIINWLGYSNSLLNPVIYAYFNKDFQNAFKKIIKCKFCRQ
Assay [9] concerns the target Heat shock protein HSP 90-alpha (Homo sapiens, UniProt P07900). The assay is described as follows: Luminescence-based dose response biochemical high throughput screening assay for inhibitors of the Heat Shock Protein 90 (HSP90). [Related pubchem assays: 1831 (Summary AID.), 1846 (Confirmation screen.), 1789 (Primary screen.)].
Assay [10] deals with T4, Voltage-gated inwardly rectifying potassium channel KCNH2 (Homo sapiens, UniProt Q12809). Description: dose-dependent reversal of dofetilide hERG block – manual patch clamp, HEK293 cells, dose response (AID 2638). The assay is classed as ADME. Background: Block of hERG is tested as a sign of cardiac risk.
T4 sequence (Q12809 whole entry): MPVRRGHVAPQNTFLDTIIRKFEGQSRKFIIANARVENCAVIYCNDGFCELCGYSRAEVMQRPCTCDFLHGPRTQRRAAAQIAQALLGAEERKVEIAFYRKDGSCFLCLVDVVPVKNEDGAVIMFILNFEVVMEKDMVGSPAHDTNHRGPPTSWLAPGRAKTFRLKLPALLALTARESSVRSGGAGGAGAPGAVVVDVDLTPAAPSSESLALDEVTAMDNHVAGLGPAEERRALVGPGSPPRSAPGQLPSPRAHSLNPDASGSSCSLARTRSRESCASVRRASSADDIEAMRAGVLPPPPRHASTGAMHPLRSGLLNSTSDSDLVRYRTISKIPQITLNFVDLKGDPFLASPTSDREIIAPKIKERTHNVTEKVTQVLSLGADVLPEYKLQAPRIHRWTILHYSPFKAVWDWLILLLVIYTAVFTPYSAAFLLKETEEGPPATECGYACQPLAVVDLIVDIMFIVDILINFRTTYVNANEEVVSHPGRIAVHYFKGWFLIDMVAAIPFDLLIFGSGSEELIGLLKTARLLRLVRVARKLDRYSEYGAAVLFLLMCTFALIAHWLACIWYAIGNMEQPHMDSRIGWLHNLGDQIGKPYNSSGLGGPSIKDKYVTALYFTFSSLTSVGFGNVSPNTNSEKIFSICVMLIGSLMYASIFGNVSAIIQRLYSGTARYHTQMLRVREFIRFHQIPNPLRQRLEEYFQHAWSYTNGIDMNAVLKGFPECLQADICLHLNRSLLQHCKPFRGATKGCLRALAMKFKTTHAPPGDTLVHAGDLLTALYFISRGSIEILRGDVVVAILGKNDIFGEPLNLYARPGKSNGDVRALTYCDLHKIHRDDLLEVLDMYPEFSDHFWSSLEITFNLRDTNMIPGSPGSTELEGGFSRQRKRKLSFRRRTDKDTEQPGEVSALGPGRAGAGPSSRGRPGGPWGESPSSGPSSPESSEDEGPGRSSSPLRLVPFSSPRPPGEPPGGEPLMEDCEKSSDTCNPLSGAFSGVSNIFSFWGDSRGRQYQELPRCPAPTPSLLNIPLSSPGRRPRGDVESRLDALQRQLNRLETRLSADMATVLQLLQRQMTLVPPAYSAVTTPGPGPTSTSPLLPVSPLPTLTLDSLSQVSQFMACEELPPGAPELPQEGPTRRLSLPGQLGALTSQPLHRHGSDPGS
The target of assay [11] is T4, Voltage-gated inwardly rectifying potassium channel KCNH2. The assay is described as follows: concentration-dependent hERG rescue from blockers – cell-based, thallium flux, dose response (AID 2121). The assay is classed as ADME.
Assay [12] is described as follows: P. falciparum Dd2 growth inhibitors, dose response, SYBR Green, cherry-picked samples (AID 1159567). The assay is classed as functional, cell-based.
Assay [13] in a line: toxicity to human hepatoma HepG2 cells – cell-based, cherry-picked samples, cytotoxicity control, dose response (AID 1159577). The assay is classed as functional.
The target of a further assay is Ephrin type-A receptor 4 (Mus musculus, UniProt Q03137). The assay is described as follows: EphA4 ligand-binding antagonists – biochemical, colorimetric, mouse EphA4, primary screen (AID 689). In kind it is functional.
Ephrin type-A receptor 4, sequence (Q03137 whole entry): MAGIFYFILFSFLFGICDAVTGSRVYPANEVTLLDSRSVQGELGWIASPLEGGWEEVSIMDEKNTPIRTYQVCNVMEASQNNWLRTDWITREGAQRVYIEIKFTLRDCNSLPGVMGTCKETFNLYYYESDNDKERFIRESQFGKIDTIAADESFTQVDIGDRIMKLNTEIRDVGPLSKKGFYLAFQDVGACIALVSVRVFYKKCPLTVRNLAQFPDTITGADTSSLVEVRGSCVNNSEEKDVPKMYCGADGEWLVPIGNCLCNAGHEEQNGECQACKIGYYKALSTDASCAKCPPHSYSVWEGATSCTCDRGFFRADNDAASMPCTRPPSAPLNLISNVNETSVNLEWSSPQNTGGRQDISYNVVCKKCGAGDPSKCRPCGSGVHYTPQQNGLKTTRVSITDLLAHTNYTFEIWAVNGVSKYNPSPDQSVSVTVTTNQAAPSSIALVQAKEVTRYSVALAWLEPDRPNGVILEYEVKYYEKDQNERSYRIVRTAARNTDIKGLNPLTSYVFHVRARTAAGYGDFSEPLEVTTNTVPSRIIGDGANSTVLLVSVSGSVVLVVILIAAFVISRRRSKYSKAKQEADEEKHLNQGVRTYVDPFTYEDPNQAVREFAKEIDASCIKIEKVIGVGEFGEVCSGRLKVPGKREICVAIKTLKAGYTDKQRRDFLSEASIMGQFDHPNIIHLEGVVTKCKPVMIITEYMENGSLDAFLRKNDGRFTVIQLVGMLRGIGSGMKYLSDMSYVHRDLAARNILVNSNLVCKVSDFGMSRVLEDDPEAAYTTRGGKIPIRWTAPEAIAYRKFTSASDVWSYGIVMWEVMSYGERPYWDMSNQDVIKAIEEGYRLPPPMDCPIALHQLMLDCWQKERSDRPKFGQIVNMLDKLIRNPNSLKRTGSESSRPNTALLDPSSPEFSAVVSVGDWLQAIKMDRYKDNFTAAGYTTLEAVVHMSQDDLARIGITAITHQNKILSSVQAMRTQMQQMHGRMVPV
For assay [14], the target named is G-protein coupled receptor 183 (Homo sapiens, UniProt P32249). The assay is described as follows: SAR confirmation of small molecule antagonists of the EBI2 receptor via a luminescent beta-arrestin assa. The assay is classed as functional.
G-protein coupled receptor 183, sequence (P32249 whole entry): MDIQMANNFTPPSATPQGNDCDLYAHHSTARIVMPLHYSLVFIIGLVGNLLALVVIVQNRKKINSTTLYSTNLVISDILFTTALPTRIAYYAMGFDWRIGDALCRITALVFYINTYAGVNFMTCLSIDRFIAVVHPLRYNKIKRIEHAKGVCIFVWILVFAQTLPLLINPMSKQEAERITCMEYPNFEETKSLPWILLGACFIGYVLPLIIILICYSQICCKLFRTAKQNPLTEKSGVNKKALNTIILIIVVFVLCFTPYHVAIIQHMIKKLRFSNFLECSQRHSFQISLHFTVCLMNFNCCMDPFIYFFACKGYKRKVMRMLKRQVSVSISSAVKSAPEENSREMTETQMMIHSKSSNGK
Assay [15] concerns Streptococcus sp. 'group A'. Description: Streptococcus pyogenes SK(-)GAS viability under kanamycin – luminescence, BacTiterGlo, confirmation, counter-screen for streptokinase expression inhibitor project, dose response (AID 1900). The assay is classed as functional, organism-based.
The next assay deals with T5, Streptokinase A (Streptococcus pyogenes serotype M1, UniProt P10520).
T5 sequence (P10520 whole entry): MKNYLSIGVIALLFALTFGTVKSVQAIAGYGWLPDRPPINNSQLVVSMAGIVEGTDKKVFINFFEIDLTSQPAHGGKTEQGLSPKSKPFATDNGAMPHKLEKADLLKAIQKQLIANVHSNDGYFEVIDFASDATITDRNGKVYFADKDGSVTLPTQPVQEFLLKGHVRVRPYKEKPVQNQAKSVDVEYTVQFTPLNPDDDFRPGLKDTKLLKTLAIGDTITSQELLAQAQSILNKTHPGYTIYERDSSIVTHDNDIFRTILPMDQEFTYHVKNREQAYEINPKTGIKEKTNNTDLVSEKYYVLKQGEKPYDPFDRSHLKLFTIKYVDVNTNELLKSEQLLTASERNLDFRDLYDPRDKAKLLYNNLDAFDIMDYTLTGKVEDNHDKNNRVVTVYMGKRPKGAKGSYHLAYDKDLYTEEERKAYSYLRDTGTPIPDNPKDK
Description: viability-normalized secreted streptokinase activity reduction – plasminogen activation absorbance, OD405, dose response (AID 1914).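 Further: secreted streptokinase activity via plasminogen activation per viability signal from cell pellet.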 In kind it is functional, Streptococcus pyogenes M1 GAS.

The next assay has as its system Streptococcus. The assay is described as follows: GAS UMAA2166 growth inhibition – luminescence, BacTiterGlo, counter-screen for streptokinase expression inhibitor project, dose response (AID 1915).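 Further: potency for reduction of bacterial viability or growth.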 In kind it is functional, organism-based.
The next assay deals with Nonstructural protein 1 (Influenza A virus, UniProt Q194T2). The assay is classed as functional, Influenza A virus (A/California/07/2009(H1N1)).
Nonstructural protein 1, sequence (Q194T2 whole entry): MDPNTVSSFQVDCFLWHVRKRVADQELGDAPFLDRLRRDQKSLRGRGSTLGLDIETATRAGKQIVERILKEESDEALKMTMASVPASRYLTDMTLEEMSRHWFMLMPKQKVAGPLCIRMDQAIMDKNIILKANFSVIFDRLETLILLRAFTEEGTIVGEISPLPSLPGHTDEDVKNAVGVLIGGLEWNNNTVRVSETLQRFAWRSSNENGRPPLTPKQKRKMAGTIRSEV
Assay [16] can be described thus: ATP-based viability loss in HEK293T cells – cell-based, CellTiter-Glo luminescence, dry powder, set 2, cytotoxicity control, dose response (AID 720595). In kind it is functional. Conditions: HEK293.
A short description of assay [17]: ATP-based viability loss in HeLa cells – cell-based, CellTiter-Glo luminescence, dry powder, set 2, cytotoxicity control, dose response (AID 720593). In kind it is functional.
Assay [18] in a line: CellTiter-Glo luminescence survival assay, SW480 colon tumor line, concentration-response curve, half-maximal inhibitory concentration (AID 1117338). The assay is classed as functional.
The nature of assay [19]: RKO cell viability reduction, dose response, CellTiter-Glo luminescence (AID 1117322). In kind it is functional.
Assay [20] can be described thus: cytotoxicity toward HCT116 cells – cell-based, CellTiter-Glo luminescence, IC50, dose response (AID 1117332). The assay is classed as functional. The note with it: HCT-116.
The nature of assay [21]: SNU-C1 cell viability reduction, dose response, CellTiter-Glo luminescence (AID 1117323). The assay is classed as functional, cell-based.
A short description of assay [22]: cytotoxicity toward Colo320 cells – cell-based, CellTiter-Glo luminescence, IC50, dose response (AID 1117334). The assay is classed as functional. Conditions: COLO 320.
Assay [23] is described as follows: cytotoxicity toward HT-29 cells – cell-based, CellTiter-Glo luminescence, IC50, dose response (AID 1117330). In kind it is functional.
Assay [24] in a line: Reduced DLD-1 viability, concentration-response, CellTiter-Glo luminescence (AID 1117352). In kind it is functional.
Assay [25] is described as follows: HCT116 cell viability decrease, GSK3B pretreatment – CellTiter-Glo, IC50, dose response (AID 1117339). In kind it is functional. Conditions: HCT-116.
The test system of the next assay is Vero. The assay is described as follows: mammalian cell viability reduction – secondary assay, cytotoxicity control for West Nile virus antiviral project, dose response (AID 1650). Conditions: Chlorocebus sabaeus. The assay is classed as functional.

Calls of active or inactive are those of the source. Bounds are passed on as bounds.

Photoreceptor-specific nuclear receptor, sequence (Q9Y5X4 whole entry): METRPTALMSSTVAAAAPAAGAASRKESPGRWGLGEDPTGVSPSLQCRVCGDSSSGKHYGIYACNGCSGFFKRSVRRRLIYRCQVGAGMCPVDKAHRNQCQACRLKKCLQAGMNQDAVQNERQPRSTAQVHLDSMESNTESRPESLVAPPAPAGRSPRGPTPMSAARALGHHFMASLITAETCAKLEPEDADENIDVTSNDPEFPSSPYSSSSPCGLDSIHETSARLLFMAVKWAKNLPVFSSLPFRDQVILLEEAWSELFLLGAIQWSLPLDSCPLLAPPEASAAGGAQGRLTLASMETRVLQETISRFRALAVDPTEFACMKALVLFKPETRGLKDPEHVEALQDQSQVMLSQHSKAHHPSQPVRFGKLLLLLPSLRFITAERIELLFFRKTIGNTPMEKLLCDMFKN
Bifunctional protein GlmU, sequence (P9WMN3 whole entry): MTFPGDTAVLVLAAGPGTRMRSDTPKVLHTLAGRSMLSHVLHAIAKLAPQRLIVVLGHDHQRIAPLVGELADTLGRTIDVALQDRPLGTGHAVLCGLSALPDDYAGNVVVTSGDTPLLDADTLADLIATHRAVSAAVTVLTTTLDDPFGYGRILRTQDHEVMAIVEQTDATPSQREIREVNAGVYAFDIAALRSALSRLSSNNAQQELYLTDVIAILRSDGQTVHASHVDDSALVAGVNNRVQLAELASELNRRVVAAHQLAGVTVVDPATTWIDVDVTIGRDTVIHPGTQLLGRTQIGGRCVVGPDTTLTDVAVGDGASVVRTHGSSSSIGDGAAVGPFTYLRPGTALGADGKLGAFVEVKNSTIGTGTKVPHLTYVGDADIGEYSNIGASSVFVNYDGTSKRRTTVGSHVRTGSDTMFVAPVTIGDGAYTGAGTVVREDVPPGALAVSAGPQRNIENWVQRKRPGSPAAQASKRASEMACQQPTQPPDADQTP

A word on the IC50: it is the concentration that gives 50% inhibition. In the case of `Fc1ccc(CNc2nc3ccccc3n3cnnc23)cc1`, the IC50 against Estrogen receptor was > 50 µM (not active); in assay [1], 1.42 µM (active); in assay [2] it was 2.69 µM (active).

The AC50 is the midpoint of the concentration-response curve, whichever way the signal moves. As to `CC(C)S(=O)(=O)C1=NSC2=NC(=O)/C(=C\c3ccc(-c4cccc(C(=O)O)c4)o3)C(=N)N21`, the IC50 in assay [3] is 13.5 µM (active). Further, in [4], the AC50 was 8.1 µM (active).

Turning to `Cc1cc(Cl)ccc1NC(=S)NNC(=S)Nc1ccc(F)cc1`, the IC50 is 0.96 µM (active) on NADPH oxidase 1 [5] and 0.67 µM (active) on NADPH oxidase 1 [6].

A word on the EC50: it is the midpoint of the concentration-response curve. With `COc1cc(CN2CCN(c3cccc(C)c3C)CC2)cc(OC)c1O`, the EC50 in assay [7] is given as > 195 µM (not active); in assay [8], > 50 µM (not active).

As for `Cc1nc(CS(=O)(=O)c2ccc(Cl)cc2)sc1C(=O)O`, in assay [9], the 50% inhibitory concentration (IC50) was 12.1 µM (not active).

With `O=C(O)c1cc(Cl)ccc1Nc1nc2cc(Cl)ccc2o1`, the EC50 in assay [10] was 107 µM (not active); in [11], 11.7 µM (active).

As to `COc1ccc2c3c([nH]c2c1)[C@@H](CO)N(C(=O)Nc1ccc(F)cc1)CC31CN(Cc2ccccc2OC)C1`, the half-maximal activity concentration (AC50) in [12] is 3.7 µM (active); in assay [13] it was 9.77 µM (active).

On to `O=C1/C(=C\c2ccco2)SC(=S)N1Cc1ccccc1`, for which the IC50 on Ephrin type-A receptor 4 is 3.21 µM (active).

With `O=C(/C=C/c1ccccc1C(F)(F)F)N1CCN(S(=O)(=O)c2ccc(Br)cc2)CC1`, the IC50 in assay [14] was 0.31 µM (active).

Consider `Cc1ccc(C(=O)Nc2nc(-c3ccccn3)cs2)o1`, for which the EC50 in assay [15] is 17.9 µM (active); at Streptokinase A, > 150 µM (not active); with Streptococcus, > 150 µM (not active). The IC50 on Nonstructural protein 1 was 10.1 µM (active). Further, the AC50 in [16] is 29.1 µM (active); in [17] it was > 52 µM (inactive).

`CCCCCCCCCCCCCCCCCCOP(=O)([O-])OC1CC[N+](C)(C)CC1` [PERIFOSINE]: the half-maximal inhibitory concentration (IC50) was 0.852 µM (active) in assay [18]; 2.1 µM (active) in assay [19]; 3.17 µM (active) in assay [20]; > 20 µM (inactive) in assay [21]; 2.36 µM (active) in assay [22]; 6.9 µM (inactive) in assay [23]. Also, the IC50 is > 20 µM (inactive) in [24] and 5.79 µM (inactive) in [25].

Broadly, the CC50 is the concentration at which the toxic effect on the cells reaches its halfway point. As to `Cn1cc([N+](=O)[O-])c(C(=O)Nc2ccn(Cc3c(F)c(F)cc(F)c3F)n2)n1`, the CC50 with Vero was 20.8 µM (active).

These data come from ChEMBL document CHEMBL1201862, “PubChem BioAssay data set” (2004).
